Source: paper PMC9865397, “Colon-Targeted Trans-Cinnamic Acid Ameliorates Rat Colitis by Activating GPR109A” (Pharmaceutics, 2022)

Tests used:
RAW 264.7 cells = assay: LPS-stimulated RAW 264.7 cells: IL-10, COX-2 and iNOS levels; assay type: cell-based, murine
Description: (§1) Changes in levels of the proteins were monitored using Western blotting. Cell lysates and tissue lysates of the distal colon were prepared for Western blot analysis as described previously. To determine the protein concentrations in the lysates, bicinchoninic acid reagent (Thermo Fisher Scientific, Waltham, MA, USA) was used according to the manufacturer’s instructions. SDS-PAGE (10 or 7.5% gels) was used to separate and analyze the proteins in the sample lysates. Anti-cyclooxygenase (COX-2, sc-365374, Santa Cruz Biotechnology, Dallas, TX, USA) and anti-inducible nitric oxide synthase (iNOS) antibodies (sc-7271, Santa Cruz Biotechnology) were used to detect COX-2 and iNOS proteins, respectively. Horseradish peroxidase-conjugated secondary antibodies (Santa Cruz Biotechnology) were used to label the primary antibodies. The protein bands in membranes were visualized using the SuperSignal chemiluminescence substrate (Thermo Fisher Scientific, Waltham, MA, USA). As a loading control, α-tubulin was detected using an anti-α-tubulin antibody (Santa Cruz Biotechnology). Intensity of Western blots was quantified using Image Lab software (version 5.2 build 14, Bio-Rad, Hercules, CA, USA). The mean values (n = 3 for cell experiments, n = 5 for animal experiments) were shown under the blots in figures. Original images of Western blots are shown in Supplementary Data S1.

DNBS-induced rat colitis = assay: DNBS-induced rat colitis, anti-colitic effects; assay type: in vivo; settings: for colonic damage (CDS) / CINC-3 level in inflamed distal colon / MPO activity in inflamed distal colon / iNOS and COX-2 protein levels in inflamed distal colon: oral once per day for 6 days, tCA 30 mg/kg; for colonic damage (CDS): tCA-GA equivalent to 15 (L) and 30 (H) mg/kg tCA, SSZ 30 mg/kg; for CINC-3 level in inflamed distal colon / MPO activity in inflamed distal colon / iNOS and COX-2 protein levels in inflamed distal colon: tCA-GA L and H
Description: For an animal experiment to evaluate the anti-colitic effects of drugs, six groups (n = 5 rats per group) were made and treated via oral gavage as follows: normal group, 1.0 mL of phosphate buffered saline (pH 7.4, PBS); colitis group, 1.0 mL of PBS; tCA-treated colitis group, tCA (30 mg/kg) in 1.0 mL of PBS; tCA-GA-treated colitis group (L), tCA-GA (28 mg/kg, equivalent to 15 mg/kg of tCA) in 1.0 mL of PBS; tCA-GA-treated colitis group (H), tCA-GA (56 mg/kg, equivalent to 30 mg/kg of tCA) in 1.0 mL of PBS; SSZ-treated colitis group, SSZ (30 mg/kg) in 1.0 mL of PBS. For the other experiment to evaluate GPR109A-dependent anti-colitic effects of tCA-GA, five groups (n = 5 rats per group) were made and treated via oral gavage as follows: normal group, 1.0 mL of PBS; colitis group, 1.0 mL of PBS; tCA-GA-treated colitis group, tCA-GA (28 mg/kg) in 1.0 mL of PBS; tCA-GA + MPZ-treated colitis group, tCA-GA (28 mg/kg) and MPZ (2 mg/kg) in 1.0 mL of PBS; MPZ-treated colitis group, MPZ (2 mg/kg) in 1.0 mL of PBS.
DNBS-mediated colitis was induced in rats as described previously. Additionally, 3 days after the induction of colitis, the drugs were administered once per day for 6 days as in Section 2.10. The rats were killed to obtain the inflamed distal colon. The colonic damage score (CDS), assessing pathological state in colon tissue and neighbor organs ascribed to DNBS-induced inflammation, was calculated according to the criteria set previously. For histological evaluation, fixed colon tissues were embedded in paraffin, sections with a thickness of 4 μm were cut and stained with hematoxylin and eosin (H&E). The sections were examined under a light microscope (Olympus BX43, Olympus Co., Tokyo, Japan). Myeloperoxidase (MPO) activity was measured as described previously.
as §1
The distal colon samples (0.1 g) obtained from rats were minced in a potassium phosphate buffer (pH 6.0, 1.0 mL), homogenized using a T10 basic/IKA homogenizer (ULTRA-TURRAX®, Staufen im Breisgau, Germany), and centrifuged at 10,000× g for 10 min at 4 °C. The levels of CINC-3 and IL-10 were determined in the samples using ELISA kits, according to the manufacturer’s instructions.

Caco-2 cell monolayer = Caco-2 cell monolayer permeability assay; assay type: in vitro ADME, Human; settings: 1.2 mM on apical side, up to 24 h, compared with tCA
Description: Caco-2 cells were seeded at 1 × 10^5 cells per insert in Transwell inserts with a pore size of 0.4 μm (SPL Inc., Houston, TX, USA). DMEM, containing 10% FBS and 1% penicillin/streptomycin, was added to the basolateral (well) (1 mL) and apical (insert) compartments (0.2 mL). The cells were grown until the trans-epithelial electrical resistance value (EMD Millipore, Billerica, MA, USA) of the cell monolayer reached 2000 Ω cm^2. After removing the culture medium, tCA and its derivatives (1.2 mM) dissolved in DMEM (0.2 mL) without phenol red and were placed on the apical side of the cell monolayer. At appropriate time intervals, the concentrations of the drugs on the basolateral side filled with DMEM (1.0 mL) were determined using HPLC.

[1] = Stability in small intestinal contents; assay type: in vitro ADME; settings: rat small intestinal contents, up to 10 h
Description: (§2) Male Sprague–Dawley (SpD) rats (250–260 g) were killed using CO2 gas. The proximal small intestinal, distal small intestinal, and cecal contents were collected separately and suspended in pH 6.8 isotonic phosphate buffer to prepare a 20% w/v suspension. tCA-GA and tCA-AA (10 mM) dissolved in pH 6.8 isotonic phosphate buffer (4 mL) were added to the suspension (4 mL) and incubated at 37 °C. To maintain anaerobic conditions, the collection of cecal contents and incubation of the conjugates in the cecal contents were conducted in a nitrogen gas bag (Sigma-Aldrich, Burlington, MA, USA). At appropriate time intervals, a portion of the mixture (0.5 mL), pipetted using a wide-orifice tip, was centrifuged in a microtube. After acidification (with 1.0 M HCl) of the supernatant (0.3 mL), EA was added and vigorously mixed. The organic layer (0.2 mL) was retrieved and evaporated. The residue, dissolved in the mobile phase (0.2 mL), was filtered and subjected to HPLC analysis. Centrifugation was conducted at 10,000× g for 10 min at 4 °C.

[2] = Distribution coefficient (log D6.8), n-octanol/buffer pH 6.8; assay type: physicochemical; settings: n-octanol/buffer (pH 6.8) system; read-out: distribution coefficient (DC, log D6.8)
Description: (§3) Distribution coefficients (log D6.8) of tCA, tCA-AA, and tCA-GA were measured as described previously. The concentrations of drugs were determined using a UV-Vis spectrophotometer (Shimadzu, Tokyo, Japan) at 277 nm, and log D6.8 was calculated using the equation reported previously. The chemical stabilities of tCA-GA and tCA-AA were analyzed in HCl-NaCl buffer (pH 1.2) and pH 6.8 isotonic phosphate buffer, representing the physiological pH of the stomach and small intestine, respectively. Each drug (0.1 mM) dissolved in the buffers was incubated for at least 12 h, and change in the concentrations of the drugs was monitored using HPLC analysis.

[3] = Cleavage test with autoclaved cecal contents; assay type: in vitro ADME, rat; settings: up to 24 h
[4] = Chemical stability in pH 1.2 and pH 6.8 buffers; assay type: physicochemical; settings: incubation for up to 10 h
Description: as §3, with “Each drug (0.1 mM) dissolved in the buffers was incubated for at least 12 h, and change in the concentrations of the drugs was monitored using HPLC analysis.” left out

[5] = Conversion of conjugates to tCA in cecal contents under nitrogen; assay type: in vitro ADME; settings: rat cecal contents under nitrogen
Description: as §2

[6] = RAW 264.7, LPS, MPZ 100 µM with tCA
[7] = tCA-GA 28 mg/kg oral once per day for 6 days (MPZ experiment)

| Compound | colonic damage (CDS) (DNBS-induced rat colitis) | CINC-3 level in inflamed distal colon (DNBS-induced rat colitis) | MPO activity in inflamed distal colon (DNBS-induced rat colitis) | iNOS and COX-2 protein levels in inflamed distal colon (DNBS-induced rat colitis) | permeation through the Caco-2 cell monolayer (Caco-2 cell monolayer) | change in concentration in small intestinal contents [1] | logD [2] | stability in autoclaved cecal contents [3] | change in concentration in buffers (pH 1.2, 6.8) [4] | also measured |
| --- | --- | --- | --- | --- | --- | --- | --- | --- | --- | --- |
| C[N+]1(C)CCCC(OC(=O)C(O)(c2ccccc2)c2ccccc2)C1 (centres unmarked) [MPZ, mepenzolate, reference compound] | – | – | – | – | – | – | – | – | – | effect of MPZ on tCA suppression of COX-2 and iNOS (RAW 264.7 cells; [6]): undermined the suppressive effects of tCA; effect of MPZ on tCA-increased IL-10 level (RAW 264.7 cells; [6]): significantly suppressed by MPZ; inflammatory state after single treatment (DNBS-induced rat colitis; MPZ 2 mg/kg alone, oral, 6 days): inflammatory state similar to that induced by the DNBS control; effect of co-administered MPZ on colonic damage and inflammation (DNBS-induced rat colitis; MPZ 2 mg/kg co-administered with tCA-GA 28 mg/kg, oral, 6 days): significantly compromised the beneficial effects of tCA-GA; effect of co-administered MPZ on IL-10 level in inflamed colon (DNBS-induced rat colitis; MPZ 2 mg/kg combined with tCA-GA 28 mg/kg, oral, 6 days): significantly suppressed the increase in the levels of IL-10 |
| O=C(O)c1cc(/N=N/c2ccc(S(=O)(=O)Nc3ccccn3)cc2)ccc1O [SSZ, sulfasalazine, reference compound] | tCA was as effective as SSZ | – | – | – | – | – | – | – | – | – |
| O=C(O)/C=C/c1ccccc1 [tCA, trans-cinnamic acid] | ameliorated colonic damage | lowered | lowered MPO activity | lowered | – | – | – | – | – | LPS-induced COX-2 and iNOS protein levels (RAW 264.7 cells; RAW 264.7, LPS 24 h, tCA pretreatment 1 h): reduced the levels of COX-2 and iNOS; IL-10 level in cell culture supernatant (RAW 264.7 cells; RAW 264.7, LPS, tCA 2 mM / 5 mM): increased the level of IL-10 |
| O=C(O)C[C@H](NC(=O)/C=C/c1ccccc1)C(=O)O [tCA-AA, N-Cinnamoyl-L-Aspartic Acid] | – | – | – | – | substantially delayed the permeation of tCA through the cell monolayer | no notable changes in the concentrations | -0.61 | remained intact for up to 24 h | no notable changes in the concentrations | – |
| O=C(O)CC[C@H](NC(=O)/C=C/c1ccccc1)C(=O)O [tCA-GA, N-Cinnamoyl-L-Glutamic Acid] | significantly more effective than tCA at mitigating pathological changes | lowered | lowered MPO activity | lowered | substantially delayed the permeation of tCA through the cell monolayer | no notable changes in the concentrations | -0.98 | remained intact for up to 24 h | no notable changes in the concentrations | conversion rate to tCA [5]: higher than that of tCA-AA to tCA; H&E staining, mucosal layer of distal colon (DNBS-induced rat colitis; both doses of tCA-GA, greater than tCA and SSZ): recovered the mucosal layer of the distal colon; IL-10 level in inflamed colon (DNBS-induced rat colitis; first experiment (Supplementary Data S6), more effective than oral tCA): increased the levels of IL-10 in the inflamed colon; IL-10 level in inflamed colon (DNBS-induced rat colitis; [7]): increased the levels of IL-10 in the inflamed colon; colonic damage incl. colon length shortening (DNBS-induced rat colitis; [7]): substantially alleviates colonic damage; colonic inflammation (MPO activity, CINC-3, iNOS, COX-2 in distal colon) (DNBS-induced rat colitis; [7]): markedly suppressed |
